Patent US8847003B2, “Role of proteoglycans in drug dependence” (priority 2002, dated 2014)
Ends that are not written are not given here.

Columns and labels:
[1] = test system: syndecan-3; test: Western blot of uncleaved syndecan-3 after ICV GM-6001 in mice; format: in vivo, C57BL/6J mice; details: for uncleaved syndecan-3 / shedding of syndecan-3 (western blot, syndecan-3 C-terminal domain antibody): ICV at various doses, sacrificed 3 hours after administration
From the text: FIG. 5B. Quantification of western blot shown in (A).

[2] = test system: syndecan-mutant mice; test: Cue-induced reinstatement of cocaine-seeking behavior; format: in vivo; details: for reinstatement of cocaine seeking behavior in mice (figure legend): FIG. 6 legend
From the text: . Separate groups of mice of the 3 syndecan mutant genotypes (syndecan-3 knockout, whole syndecan-1 transgenic, and syndecan-1 ectodomain transgenic mice) were trained to self-administer cocaine by intravenous injection as described above. Mice were subjected to 7 sessions of 1-hour access to self-administration followed by 8 sessions of 6-hour access as described above.
Mice were allowed one 1-hour extinction session/day for a minimum of 14 days, until an extinction criterion was reached. The extinction criterion was designated as a group mean of less than 10 responses/1 hour for two consecutive sessions on the active lever.
The conditions during testing were identical to those during the extinction phase, with the exception that lever presses led to presentations of the cocaine cue-light for 5 seconds. The 1-hour test session for cue-induced reinstatement were conducted on the day following the last extinction session. A one way ANOVA with one between factor (genotype, three) were used to measure any differential effects of the cocaine-related cue induced reinstatement.
In still another example, the following experiment was performed showing that a wide spectrum of MMP inhibitors block cue-induced reinstatement of cocaine seeking behavior. Lever-pressing behavior in cocaine self-administering syndecan-mutant mice was extinguished in the absence of the 20 sec cue light (CS) that was paired with cocaine infusions during the training phase as shown in Example 4. […] In FIG. 6B, After a few days, animals were again presented with the cue light non-contingently and on the third day of reinstatement they were administered IP the systemically active broad-spectrum MMP inhibitor prinomastat (20 mg/Kg) 30-60 min before the reinstatement sessions starting on the third session.

[3] = Rotarod performance; format: in vivo, mice; details: prinomastat at the dose used (20 mg/Kg IP); data not shown
[4] = test system: mouse hypothalamic protein extracts; test: Cleavage of internally-quenched fluorogenic peptides by hypothalamic protein extracts; format: biochemical; details: 37° C., 50 mM Tris-HCl buffer, pH 7.0; for proteolytic cleavage of the fluorogenic peptide by hypothalamic extracts: peptide as substrate
From the text: According to one of the embodiments of the invention, syndecan-3 sheddases are identified by an assay for syndecan-3 cleavage, which requires knowledge of the cleavage site. The cleavage site for syndecan-3 cleavage is not presently completely identified. However, according to embodiments of the invention, we designed a battery of overlapping internally-quenched fluorogenic peptides spanning the juxta-membrane region of the mouse syndecan-3 (Amino Acid residues 355-388) labeled at their ends with Abz (ortho-aminobenzoyl) and EDDnp (ethylenediaminedinitrophenyl) for fluorescent detection of proteolytic cleavage (FIG. 7A). The peptides were individually incubated with mouse hypothalamic protein extracts at 37° C. in 50 mM Tris-HCl buffer, pH 7.0. Fluorescence was continuously measured at λex=320 nm and λem=420 nm. […] Proteolytic activity is expressed as reaction rate (activity/μl/min). […] Thus, this peptide or a peptide overlapping this peptide can be used in an assay to identify the sheddase of syndecan-3 and/or drugs that prevent or facilitate shedding (inhibitors, activators, mimics antimimics).
While the invention has been described in conjunction with the detailed description, the foregoing description is intended to illustrate and not limit the scope of the invention, which is defined by the scope of the appended claims. Other aspects, advantages, and modifications are within the scope of the following claims.

Ilomastat [GM6001]
uncleaved syndecan-3 / shedding of syndecan-3 (western blot, syndecan-3 C-terminal domain antibody) [1]: reduces shedding of syndecan-3 | uncleaved syndecan-3 / shedding of syndecan-3 (western blot, syndecan-3 C-terminal domain antibody) ([1]; listed as GM-6001): accumulation of uncleaved syndecan-3 | increase of uncleaved syndecan-3 (quantification of western blot) ([1]; ICV, highest doses tested (0.4 μg, 2.0 μg), p<0.01 from vehicle-injected control): about 3 fold | reinstatement of cocaine seeking behavior in mice (figure legend) [2]: block reinstatement of cocaine seeking behavior | responding during reinstatement, last day before treatment vs last day of treatment ([2]; GM6001 0.4 μg ICV 30-60 min before sessions, syndecan-3 KO mice): not significantly different | cocaine seeking behavior (responding) during reinstatement ([2]; GM6001 0.4 μg ICV 30-60 min before sessions, whole syndecan-1 Tg mice, p<0.01 from last day before treatment): greatly reduced

CC1(C)SCCN(S(=O)(=O)c2ccc(Oc3ccncc3)cc2)[C@H]1C(=O)NO [prinomastat, Prinomastat]
reinstatement of cocaine seeking behavior in mice (figure legend) [2]: block reinstatement of cocaine seeking behavior | responding during reinstatement ([2]; prinomastat 20 mg/Kg IP 30-60 min before sessions, syndecan-1 ectodomain Tg mice, p<0.01 from last day before treatment): significantly declined | performance on the rotarod [3]: did not affect

RPGLGLHDNA (not fully specified; also: fluorophore/quencher pair (positions not given here); listed as Mus musculus) [Peptide 1, internally-quenched fluorogenic peptide from mouse syndecan-3 juxta-membrane region]
proteolytic cleavage of the fluorogenic peptide by hypothalamic extracts [4]: efficiently hydrolized

c1cnc2c(c1)ccc1cccnc12 [ortho-phenanthroline]
inhibition of hydrolysis of peptide 1 (Seq Id No. 3) by hypothalamic extract ([4]; fluorescence λex=320 nm, λem=420 nm): completely inhibited

Mca-PLQAV-Dpa-RSSSR-NH2 [Compound E003]
proteolytic cleavage of the fluorogenic peptide by hypothalamic extracts [4]: observed activity
